US9682960B2 (priority 2013, dated 2017)
Where two headings read alike, the source gives them in different places.

How the values were obtained:
Human Androgen Receptor = Human Androgen Receptor (Homo sapiens (Human), UniProt P10275); assay: Androgen receptor assay: [3H]R1881 displacement, cytosol of HEK-293 cells transfected with hAR (hydroxylapatite assay); assay type: binding; conditions: for Human Androgen Receptor Binding RBA (%) R1881 = 100: relative binding affinity; for times more potent than OH-flutamide on the human AR (RBA ratio): versus hydroxyflutamide
Human Androgen Receptor, sequence (P10275 whole entry): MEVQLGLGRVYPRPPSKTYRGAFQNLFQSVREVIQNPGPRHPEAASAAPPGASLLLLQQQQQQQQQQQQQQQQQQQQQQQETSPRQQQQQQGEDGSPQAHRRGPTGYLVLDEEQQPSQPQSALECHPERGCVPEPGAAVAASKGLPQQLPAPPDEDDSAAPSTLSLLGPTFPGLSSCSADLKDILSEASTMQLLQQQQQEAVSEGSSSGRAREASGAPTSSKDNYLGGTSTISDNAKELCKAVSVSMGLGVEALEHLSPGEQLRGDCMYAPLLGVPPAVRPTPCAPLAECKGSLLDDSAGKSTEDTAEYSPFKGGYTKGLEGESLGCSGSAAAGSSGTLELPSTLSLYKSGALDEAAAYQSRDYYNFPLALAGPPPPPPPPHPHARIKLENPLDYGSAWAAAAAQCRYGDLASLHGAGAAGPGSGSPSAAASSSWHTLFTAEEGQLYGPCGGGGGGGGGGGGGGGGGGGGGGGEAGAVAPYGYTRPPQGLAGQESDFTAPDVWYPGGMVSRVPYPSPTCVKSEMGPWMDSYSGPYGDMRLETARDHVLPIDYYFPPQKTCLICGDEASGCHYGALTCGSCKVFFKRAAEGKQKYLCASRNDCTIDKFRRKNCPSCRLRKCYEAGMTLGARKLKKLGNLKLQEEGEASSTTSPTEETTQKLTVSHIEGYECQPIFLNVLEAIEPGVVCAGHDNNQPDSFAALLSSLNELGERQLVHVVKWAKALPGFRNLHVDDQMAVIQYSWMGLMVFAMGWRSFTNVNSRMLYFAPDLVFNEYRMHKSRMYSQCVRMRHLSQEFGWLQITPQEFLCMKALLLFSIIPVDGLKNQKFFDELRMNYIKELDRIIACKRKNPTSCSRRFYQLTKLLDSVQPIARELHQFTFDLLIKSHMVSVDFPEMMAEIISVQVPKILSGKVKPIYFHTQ

[1] = system: Shionogi mouse mammary carcinoma cells; assay: In vitro androgenic/antiandrogenic activity: proliferation of Shionogi cells with or without DHT; assay type: cell-based; conditions: for stimulation at 10^−7M on basal Shionogi cell proliferation (in words): basal (no DHT); for fold more potent than OH-flutamide in reversing DHT-stimulated Shionogi cell proliferation: versus hydroxyflutamide
[2] = Mus musculus, read-out: Shionogi Antiandrogenic Activity IC50, DHT (0.3 nM)-stimulated cell number
[3] = read-out: Shionogi Antiandrogenic Activity IC50, DHT (0.3 nM)-stimulated cell number

Compound | Human Androgen Receptor Binding RBA (%) R1881 = 100 (Human Androgen Receptor; […]) | IC50 [1, 2] | Human Androgen Receptor Binding RBA (%) R1881 = 100 (Human Androgen Receptor; transfected cells) | also measured
Cc1ccc(-c2ccc(OCCCN3C(=S)N(c4ccc(C#N)c(C(F)(F)F)c4)C(=O)C3(C)C)cc2)cn1 [EM-8908] | 944 ± 265 (n = 2) % | 50 nM | – | –
CC1(C)C(=O)N(c2ccc(C#N)c(C(F)(F)F)c2)C(=S)N1CCCOc1ccc(-c2ccnc(F)c2)cc1 [EM-8923] | – | 48 nM | 136% | –
CC1(C)C(=O)N(c2ccc(C#N)c(C(F)(F)F)c2)C(=S)N1CCCOc1ccc(-c2cc[n+]([O-])cc2)cc1 [EM-8929] | – | – | 100 ± 12 (n = 2) % | IC50 [1, 3]: 17 ± 10 nM
CC1(C)C(=O)N(c2ccc(C#N)c(C(F)(F)F)c2)C(=O)N1CCCOc1ccc(-c2cc[n+]([O-])cc2)cc1 [EM-9000] | 1.5 ± 0.3 (n = 2) % | 20 ± 10 nM | – | –
CC1(C)C(=O)N(c2ccc(C#N)c(F)c2)C(=S)N1CCCOc1ccc(-c2ccncc2)c(F)c1 [EM-9011] | – | 6.6 ± 0.8 nM | 43 ± 9 (n = 2) % | –
CC1(C)C(=O)N(c2ccc(C#N)c(F)c2)C(=S)N1CCCOc1ccc(-c2ccncc2)cc1 [EM-9025] | – | – | 39% | stimulation at 10^−7M on basal Shionogi cell proliferation (in words) [1]: none of these compounds has any activity
CC1(C)C(=O)N(c2ccc(C#N)c(Cl)c2)C(=S)N1CCCOc1ccc(-c2ccncc2)c(F)c1 [EM-9037] | – | 8.7 nM | 1040 ± 350 (n = 2) % | –
CC1(C)C(=O)N(c2ccc(C#N)c(Cl)c2)C(=S)N1CCCOc1ccc(-c2ccncc2)cc1 [EM-9039] | 762 ± 396 (n = 2) % | 2.6 to 4.3 nM | – | stimulation at 10^−7M on basal Shionogi cell proliferation (in words) [1]: none of these compounds has any activity; IC50 [1, 3]: 4.3 nM
CC1(C)C(=O)N(c2ccc(C#N)c(C(F)(F)F)c2)C(=S)N1CCCOc1ccc(-c2cc[n+]([O-])cc2)cc1.Cl [EM-9043] | 175% | – | – | stimulation at 10^−7M on basal Shionogi cell proliferation (in words) [1]: none of these compounds has any activity; IC50 [1, 3]: 3.4 nM
CC1(C)C(=O)N(c2ccc(C#N)c(Cl)c2)C(=S)N1CCCOc1ccc(-c2cccnc2)cc1 [EM-9049] | 269% | 6.8 nM | – | –
CC1(C)C(=O)N(c2ccc(C#N)c(C(F)(F)F)c2)C(=S)N1CCCOc1ccc(-c2ccncc2)cn1 [EM-9050] | 317 ± 122 (n = 2) % | 12 ± 2 nM | – | –
CC1(C)C(=O)N(c2ccc(C#N)c(C(F)(F)F)c2)C(=O)N1CCCOc1ccc(-c2ccncc2)cc1F [EM-9055] | – | 10.6 nM | 7.3% | –
CC1(C)C(=O)N(c2ccc(C#N)c(C(F)(F)F)c2)C(=O)N1CCCOc1ccc(-c2ccncc2)c(F)c1 [EM-9066] | – | 11 ± 4 nM | 10.3 ± 1.3 (n = 2) % | –
CC1(C)C(=O)N(c2ccc(C#N)c(C(F)(F)F)c2)C(=O)N1CCCOc1ccc(-c2cc[n+]([O-])cc2)c(F)c1 [EM-9067] | – | 12 nM | 2.4% | –
CC1(C)C(=O)N(c2ccc(C#N)c(C(F)(F)F)c2)C(=S)N1CCCCOc1ccc(-c2cccnc2)cc1 [EM-9070] | – | 14.9 nM | 191% | –
CC1(C)C(=O)N(c2ccc(C#N)c(C(F)(F)F)c2)C(=O)N1CCCOc1ccc(-c2ccncc2)c(C(F)(F)F)c1 [EM-9089] | – | 49 nM | 2.0% | –
CC1(C)C(=O)N(c2ccc(C#N)c(C(F)(F)F)c2)C(=S)N1CCCOc1ccc(-c2ccncc2)nc1 [EM-9092] | – | 11.2 nM | 72% | –
CC1(C)C(=O)N(c2ccc(C#N)c(C(F)(F)F)c2)C(=O)N1CCCOc1ccc(-c2ccncc2)nc1 [EM-9111] | 1.0 ± 0.0 (n = 2) % | 19 nM | – | –
CC1(C)C(=O)N(c2ccc(C#N)c(C(F)(F)F)c2)C(=O)N1CCCOc1ccc(-c2ccncc2)cn1 [EM-9114] | 7.9 ± 4.1 (n = 3) % | 19.2 ± 0.3 nM | – | –
CC1(C)C(=O)N(c2ccc(C#N)c(Cl)c2)C(=O)N1CCCOc1ccc(-c2ccncc2)c(F)c1 [EM-9115] | 12.5 ± 2.3 (n = 6) % | 18 ± 4 nM | – | –
CC1(C)C(=O)N(c2ccc(C#N)c(Cl)c2)C(=O)N1CCCOc1ccc(-c2cc[n+]([O-])cc2)c(F)c1 [EM-9117] | 2.5 ± 0.5 (n = 5) % | 31 ± 10 nM | – | –
CC1(C)C(=O)N(c2ccc(C#N)c(Cl)c2)C(=O)N1CCCOc1ccc(-c2cc[n+]([O-])cc2)cc1 [EM-9118] | 2.2 ± 0.4 (n = 6) % | 15 ± 3 nM | – | –

Compound | Human Androgen Receptor Binding RBA (%) R1881 = 100 (Human Androgen Receptor; […]) | IC50 [1, 2] | Human Androgen Receptor Binding RBA (%) R1881 = 100 (Human Androgen Receptor; transfected cells) | also measured
CC1(C)C(=O)N(c2ccc(C#N)c(Cl)c2)C(=S)N1CCCOc1ccc(-c2cc[n+]([O-])cc2)c(F)c1 [EM-9119] | 122% | 12.1 ± 0.5 nM | – | –
CC1(C)C(=O)N(c2ccc(C#N)c(Cl)c2)C(=S)N1CCCOc1ccc(-c2cc[n+]([O-])cc2)cc1 [EM-9120] | 106% | 9.2 ± 0.8 nM | – | –
CC1(C)C(=O)N(c2ccc(C#N)c(C(F)(F)F)c2)CC(=O)N1CCCOc1ccc(-c2ccncc2)cc1 [EM-9126] | <0.1% | 173 nM | – | –
CC1(C)C(=O)N(c2ccc(C#N)c(F)c2)C(=O)N1CCCOc1ccc(-c2cc[n+]([O-])cc2)cc1 [EM-9176] | – | > 100 nM | ~0.1% | –
CC1(C)C(=O)N(c2ccc(C#N)c(C(F)(F)F)c2)C(=O)N1CCOc1ccc(-c2cc[n+]([O-])cc2)cc1 [EM-9180] | – | 24 nM | 1.7% | –
CC1(C)C(=O)N(c2ccc(C#N)c(Cl)c2)C(=O)N1CCCOc1ccc(-c2ccncc2)cc1F [EM-9198] | 22% | 5.3 nM | – | times more potent than OH-flutamide on the human AR (RBA ratio) (Human Androgen Receptor): 105 times; fold more potent than OH-flutamide in reversing DHT-stimulated Shionogi cell proliferation [1]: 6.4 fold
CC1(C)C(=O)N(c2ccc(C#N)c(C(F)(F)F)c2)C(=O)N1Cc1ccc(-c2ccncc2)cc1 [EM-9199] | – | 27 nM | 2.3% | –
CC1(C)C(=O)N(c2ccc(C#N)c(C(F)(F)F)c2)C(=O)N1Cc1ccc(-c2cccnc2)cc1 [EM-9200] | – | 66 nM | 2.5% | –
N#Cc1ccc(N2C(=O)N(CCCOc3ccc(-c4ccncc4)c(F)c3)C3(CCCC3)C2=O)cc1Cl [EM-9201] | 70.8% | 9.7 nM | – | –
Cc1c(N2C(=O)N(CCCOc3ccc(-c4ccncc4)c(F)c3)C(C)(C)C2=O)ccc(C#N)c1F [EM-9205] | – | 14.8 nM | 17.9% | times more potent than OH-flutamide on the human AR (RBA ratio) (Human Androgen Receptor): 85 times; fold more potent than OH-flutamide in reversing DHT-stimulated Shionogi cell proliferation [1]: 2.3 fold
Cc1cc(OCCCN2C(=O)N(c3ccc(C#N)c(Cl)c3)C(=O)C2(C)C)ccc1-c1cc[n+]([O-])cc1 [EM-9221] | 2.7% | 10.6 nM | – | –
CC1(C)C(=O)N(c2ccc(C#N)c(Cl)c2)C(=O)N1CCCOc1ccc(-c2cc[n+]([O-])cc2)cc1F [EM-9226] | 2.4% | 23 nM | – | –
CC1(C)C(=O)N(c2ccc(C#N)c(C(F)(F)F)c2)C(=O)N1Cc1ccc(-c2ccncc2)c(F)c1 [EM-9227] | 4.9% | 16.4 nM | – | –
CC1(C)C(=O)N(c2ccc(C#N)c(C(F)(F)F)c2)C(=O)N1Cc1ccc(-c2cc[n+]([O-])cc2)c(F)c1 [EM-9228] | 0.4% | 53 nM | – | –
COc1cc(-c2ccncc2)ccc1OCCCN1C(=O)N(c2ccc(C#N)c(Cl)c2)C(=O)C1(C)C [EM-9261] | 2.5% | 27 nM | – | –
CC1(C)C(=O)N(c2ccc(C#N)c(Cl)c2)C(=O)N1CCCOc1ccc(-c2ccncc2F)cc1 [EM-9267] | – | 16 nM | 5.5% | –
CC1(C)C(=O)N(c2ccc(C#N)c(C(F)(F)F)c2)C(=O)N1c1ccc(-c2ccncc2)cc1 [EM-9340] | – | – | 0.2% | IC50 ([1]; Mus musculus, DHT (0.3 nM)-stimulated cell number, read-out: Shionogi Antiandrogenic Activity IC50): 126 nM
Cc1c(N2C(=O)N(c3ccc(-c4cccnc4)cc3)C(C)(C)C2=O)ccc(C#N)c1C(F)(F)F [EM-9342] | – | 66 nM | 0.4% | –
Cc1c(N2C(=O)N(Cc3ccc(-c4ccncc4)cc3)C(C)(C)C2=O)ccc(C#N)c1Cl [EM-9343] | 6.1% | 21 nM | – | –
Cc1c(N2C(=O)N(c3ccc(-c4ccncc4)cc3)C(C)(C)C2=O)ccc(C#N)c1C(F)(F)F [EM-9344] | 0.8% | 51 nM | – | –
Cc1c(N2C(=O)N(Cc3ccc(-c4cc[n+]([O-])cc4)cc3)C(C)(C)C2=O)ccc(C#N)c1Cl [EM-9345] | – | ~80 nM | 0.5% | –
